# Target: T1, ΔF508 mutant CFTR (Homo sapiens, UniProt P13569, DEL508-508)
# T1 construct: expressed in transfected cells; host or cells: Fischer rat thyroid (FRT) cells
# Experiment: Fluorescence (YFP halide quenching) assay of ΔF508 mutant CFTR activity in FRT cells
# Assay type: cell-based
# Design: key: fold of mean activity with forskolin alone (I− quenching rate)
# Conditions: FRT cells expressing ΔF508-CFTR and YFP-H148Q/I152L, rescued at 27° C. 20-24 h; forskolin 20 μM + test compound 20 μM for 20 min; I− influx rate normalized to forskolin alone
# Excerpt: The ΔF508 mutant CFTR activities of the CFTR modulators are detected using the Fluorescence Assay developed by Pedemonte (Pedemonte N., et al., Antihypertensive 1,4-dihydropyridines as correctors of the cystic fibrosis transmembrane conductance regulator channel gating defect caused by cystic fibrosis mutations, Mol. Pharmacol., 2005, 68, 1736-1746).
# Fischer rat thyroid (FRT) cells, stably transfected with ΔF508 were retransfected with the YFP-H148Q/I152L fluorescent protein. The cells were plated (100,000 cells/well) on black 96-well microplates with clear plastic bottom (Corning Life Sciences, Acton, Mass.).
# The 96-well microplates containing FRT cells expressing F508-CFTR and the halide-sensitive YFP were incubated at 27° C. for 20 to 24 h to allow rescue of the mutant protein to the plasma membrane. After incubation, cells were washed with PBS (containing 137 mM NaCl, 2.7 mM KCl, 8.1 mM Na2HPO4, 1.5 mM KH2PO4, 1 mM CaCl2, and 0.5 mM MgCl2) and stimulated for 20 min with forskolin (20 μM) and test compounds (20 μM) in a final volume of 60 μl. Microplates were then transferred to a microplate reader for CFTR activity determination. Each assay consisted of a continuous 14-s fluorescence reading (5 points per second) with 2 s before and 12 s after injection of 165 μl of an iodide-containing solution (PBS with Cl^− replaced by I^−). Final iodide concentration in the wells was 100 mM. […] To determine I^− influx rate, the final 11 s of the data for each well were fitted with an exponential function to extrapolate initial slope. CFTR activity was determined by measuring the rate of fluorescence quenching induced by extracellular addition of I^−. Data are normalized to the mean activity measured in the presence of forskolin alone.
# T1 sequence (P13569 with tags, fused parts or gaps DEL508-508): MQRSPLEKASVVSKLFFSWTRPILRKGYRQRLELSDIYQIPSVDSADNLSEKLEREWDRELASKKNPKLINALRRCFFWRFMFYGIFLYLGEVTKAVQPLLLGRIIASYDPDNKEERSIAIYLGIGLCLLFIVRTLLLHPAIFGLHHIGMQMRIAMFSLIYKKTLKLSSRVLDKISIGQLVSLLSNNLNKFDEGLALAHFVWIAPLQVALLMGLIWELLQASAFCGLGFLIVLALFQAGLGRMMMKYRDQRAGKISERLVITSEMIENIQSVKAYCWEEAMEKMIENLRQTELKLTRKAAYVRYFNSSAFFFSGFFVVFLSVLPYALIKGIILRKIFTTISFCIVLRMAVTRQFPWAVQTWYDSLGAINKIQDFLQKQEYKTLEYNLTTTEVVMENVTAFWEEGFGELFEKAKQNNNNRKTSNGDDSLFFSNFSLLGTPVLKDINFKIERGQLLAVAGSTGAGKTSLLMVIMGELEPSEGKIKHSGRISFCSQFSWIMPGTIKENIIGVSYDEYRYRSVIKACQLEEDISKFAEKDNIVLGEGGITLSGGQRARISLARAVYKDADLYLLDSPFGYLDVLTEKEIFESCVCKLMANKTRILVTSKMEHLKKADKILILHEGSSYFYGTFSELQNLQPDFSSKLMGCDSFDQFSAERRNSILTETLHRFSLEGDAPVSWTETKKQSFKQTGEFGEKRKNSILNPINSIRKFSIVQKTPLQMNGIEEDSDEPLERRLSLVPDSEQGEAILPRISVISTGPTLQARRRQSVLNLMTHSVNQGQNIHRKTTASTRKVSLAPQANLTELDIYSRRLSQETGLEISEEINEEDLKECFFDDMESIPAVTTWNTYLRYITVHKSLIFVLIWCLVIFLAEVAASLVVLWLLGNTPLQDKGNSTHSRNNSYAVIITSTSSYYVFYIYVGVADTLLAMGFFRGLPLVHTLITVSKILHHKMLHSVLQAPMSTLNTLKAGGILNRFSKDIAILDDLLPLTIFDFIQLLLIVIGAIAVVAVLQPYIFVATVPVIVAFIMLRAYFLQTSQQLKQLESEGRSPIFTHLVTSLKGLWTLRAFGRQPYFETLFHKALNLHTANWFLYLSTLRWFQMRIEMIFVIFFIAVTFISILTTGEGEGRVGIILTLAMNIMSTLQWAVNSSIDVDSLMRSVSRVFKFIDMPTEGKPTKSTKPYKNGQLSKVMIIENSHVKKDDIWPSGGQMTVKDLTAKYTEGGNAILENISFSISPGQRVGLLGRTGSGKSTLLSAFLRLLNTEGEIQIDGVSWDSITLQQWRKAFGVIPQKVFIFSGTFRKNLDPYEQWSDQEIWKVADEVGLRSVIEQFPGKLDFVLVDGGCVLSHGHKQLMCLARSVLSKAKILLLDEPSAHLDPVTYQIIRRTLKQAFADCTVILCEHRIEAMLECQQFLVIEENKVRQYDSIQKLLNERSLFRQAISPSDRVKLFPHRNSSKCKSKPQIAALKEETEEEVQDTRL
row,Compound,CFTR Activity
1,"O=C(Nc1cncnc1OCC1CCOCC1)c1ccc(C(F)(F)F)c(-c2c(F)cccc2F)n1 [Example 47, 6-(2,6-difluorophenyl)-N-(4-((tetrahydro-2H-pyran-4-yl)methoxy)pyrimidin-5-yl)-5-(trifluoromethyl)picolinamide]",0.1
2,"Cl.Nc1cc(C(F)(F)F)c(-c2c(F)cccc2F)nc1C(=O)Nc1cncnc1OC1CCCNCC1 (stereo not drawn) [Example 48, 3-amino-N-(4-(azepan-4-yloxy)pyrimidin-5-yl)-6-(2,6-difluorophenyl)-5-(trifluoromethyl)picolinamide hydrochloride]",4.1
3,"Cl.Nc1cc(C(F)(F)F)c(-c2c(F)cccc2F)nc1C(=O)Nc1cncnc1OCC1CCNCC1 [Example 49, 3-amino-6-(2,6-difluorophenyl)-N-(4-(piperidin-4-ylmethoxy)pyrimidin-5-yl)-5-(trifluoromethyl)picolinamide hydrochloride]",3.2
4,"Cl.Nc1cc(C(F)(F)F)c(-c2c(F)cccc2F)nc1C(=O)Nc1cncnc1OCC1CNC1 [Example 50, 3-amino-N-(4-(azetidin-3-ylmethoxy)pyrimidin-5-yl)-6-(2,6-difluorophenyl)-5-(trifluoromethyl)picolinamide hydrochloride]",2.9
5,"Cl.Nc1cc(C(F)(F)F)c(-c2c(F)cccc2F)nc1C(=O)Nc1cncnc1OC1CCNCC1 [Example 51, 3-amino-6-(2,6-difluorophenyl)-N-(4-(piperidin-4-yloxy)pyrimidin-5-yl)-5-(trifluoromethyl)picolinamide hydrochloride]",4.0
6,"Cl.Nc1cc(C(F)(F)F)c(-c2c(F)cccc2F)nc1C(=O)Nc1cncnc1O[C@H]1CC[C@H](N)CC1 [Example 52, 3-amino-N-(4-(((1r,4r)-4-aminocyclohexyl)oxy)pyrimidin-5-yl)-6-(2,6-difluorophenyl)-5-(trifluoromethyl)picolinamide hydrochloride]",4.3
7,"Cl.Nc1cc(C(F)(F)F)c(-c2ccccc2)nc1C(=O)Nc1cncnc1OC1CCNC1 (stereo not drawn) [Example 53, 3-amino-6-phenyl-N-(4-(pyrrolidin-3-yloxy)pyrimidin-5-yl)-5-(trifluoromethyl)picolinamide hydrochloride]",2.4
8,"Cl.NCC(CCl)COc1ncncc1NC(=O)c1ccc(C(F)(F)F)c(-c2c(F)cccc2F)n1 (stereo not drawn) [Example 54, N-(4-(3-amino-2-(chloromethyl)propoxy)pyrimidin-5-yl)-6-(2,6-difluorophenyl)-5-(trifluoromethyl)picolinamide hydrochloride]",2.0
9,"Cl.NCC(CCl)COc1ncncc1NC(=O)c1nc(-c2c(F)cccc2F)c(C(F)(F)F)cc1N (stereo not drawn) [Example 55, 3-amino-N-(4-(3-amino-2-(chloromethyl)propoxy)pyrimidin-5-yl)-6-(2,6-difluorophenyl)-5-(trifluoromethyl)picolinamide hydrochloride]",4.4
10,"Cl.NCC(CO)COc1ncncc1NC(=O)c1ccc(F)c(-c2c(F)cccc2F)n1 (stereo not drawn) [Example 56, N-(4-(3-amino-2-(hydroxymethyl)propoxy)pyrimidin-5-yl)-6-(2,6-difluorophenyl)-5-fluoropicolinamide hydrochloride]",2.5
11,"Cl.NCC(CO)COc1ncncc1NC(=O)c1nc(-c2c(F)cccc2F)c(F)cc1N (stereo not drawn) [Example 57, 3-amino-N-(4-(3-amino-2-(hydroxymethyl)propoxy)pyrimidin-5-yl)-6-(2,6-difluorophenyl)-5-fluoropicolinamide hydrochloride]",2.1
12,"Cl.NCC(CO)COc1ncncc1NC(=O)c1ccc(C(F)(F)F)c(-c2c(F)cccc2F)n1 (stereo not drawn) [Example 58, N-(4-(3-amino-2-(hydroxymethyl)propoxy)pyrimidin-5-yl)-6-(2,6-difluorophenyl)-5-(trifluoromethyl)picolinamide hydrochloride]",2.8
13,"Cl.NCC(CO)COc1ncncc1NC(=O)c1nc(-c2c(F)cccc2F)c(C(F)(F)F)cc1N (stereo not drawn) [Example 59, 3-amino-N-(4-(3-amino-2-(hydroxymethyl)propoxy)pyrimidin-5-yl)-6-(2,6-difluorophenyl)-5-(trifluoromethyl)picolinamide hydrochloride]",3.0
14,"Cl.NC1CCCC(Oc2ncncc2NC(=O)c2ccc(C(F)(F)F)c(-c3c(F)cccc3F)n2)C1 (stereo not drawn) [Example 60, N-(4-((3-aminocyclohexyl)oxy)pyrimidin-5-yl)-6-(2,6-difluorophenyl)-5-(trifluoromethyl)picolinamide hydrochloride]",4.8
15,"Cl.Nc1cc(C(F)(F)F)c(-c2c(F)cccc2F)nc1C(=O)Nc1cncnc1OC1CCCC(N)C1 (stereo not drawn) [Example 61, 3-amino-N-(4-((3-aminocyclohexyl)oxy)pyrimidin-5-yl)-6-(2,6-difluorophenyl)-5-(trifluoromethyl)picolinamide hydrochloride]",4.2

# From patent US9981945B2, “Pyrimidine derivatives as CFTR modulators” (NuBridge BioSciences, priority 2015, dated 2018)
